# Assay results: the Biogen ADME set (Fang et al. 2023)
# Details: for aqueous solubility: pH 6.8
MDR1-MDCK efflux ratio,"intrinsic clearance, human liver microsomes","intrinsic clearance, rat liver microsomes",aqueous solubility,"fraction unbound, human plasma","fraction unbound, rat plasma",Compound
1.12,≤ 4.74 mL/min/kg,848 mL/min/kg,16.1 µg/mL,–,–,Cc1ccnc(C2CCN(C3CCCC3)CC2)n1
0.57,41.9 mL/min/kg,668 mL/min/kg,75.9 µg/mL,–,–,O=C(NCc1ncc(-c2ccccc2)o1)C1CCCCC1
0.543,8.16 mL/min/kg,192 mL/min/kg,8.8 µg/mL,–,–,O=C(NC1(c2ccccc2)CCC1)c1cc(C2CC2)on1
2.35,≤ 4.74 mL/min/kg,≤ 10.7 mL/min/kg,43.9 µg/mL,–,–,CN(C)C(=O)CN1CCN(C(=O)c2ccc3ccccc3c2O)CC1
–,17 mL/min/kg,242 mL/min/kg,–,–,–,Cc1ccn(CCC(=O)N2CCc3nc4sccc4c(=O)n3CC2)n1
9.02,≤ 4.74 mL/min/kg,19.3 mL/min/kg,27 µg/mL,–,–,Cc1ccc2nc(C)c(-c3nc(C)nn3CCO)cc2c1
2.46,18.3 mL/min/kg,225 mL/min/kg,–,–,–,Cc1ccc(-c2cnn3c(O)cc(Cn4cccn4)nc23)cc1
21,35 mL/min/kg,103 mL/min/kg,40 µg/mL,0.0905,0.0702,Nc1ncnc2c1c(-c1ccc(Oc3ccccc3)cc1)nn2[C@@H]1CCCNC1
0.652,15.6 mL/min/kg,76.4 mL/min/kg,53.5 µg/mL,–,–,CS(=O)(=O)CCNc1ccc2ccc(F)cc2n1
0.524,≤ 4.74 mL/min/kg,299 mL/min/kg,42 µg/mL,0.246,0.305,OCC1CCCCN1Cc1ccc(Cl)c(Cl)c1 (stereo not given)
1.28,29.5 mL/min/kg,434 mL/min/kg,37 µg/mL,–,–,CCNc1ccnc(N(C)Cc2nc3ccccc3n2C)n1
0.596,≤ 4.74 mL/min/kg,16.5 mL/min/kg,–,–,–,Cc1ccnc(NCc2cccnc2)n1
0.764,12.7 mL/min/kg,–,–,1,–,NC1CCCC(C(=O)Nc2ccc3[nH]ncc3c2)C1 (stereo not given)
2.93,≤ 4.74 mL/min/kg,≤ 10.7 mL/min/kg,74.3 µg/mL,–,–,Cc1ccc(-c2noc3nc(C)cc(C(=O)O)c23)cc1
1.9,≤ 4.74 mL/min/kg,80.8 mL/min/kg,–,–,–,CC(=O)N1CCC(CNc2nccc3cccnc23)CC1
0.536,–,–,0.2 µg/mL,–,–,COc1ccc(OCc2nn3c(-c4ccc(OC)cc4)nnc3s2)cc1
–,≤ 4.74 mL/min/kg,≤ 10.7 mL/min/kg,–,–,–,Cc1cc(C(=O)O)nn1-c1ccccn1
1.03,≤ 4.74 mL/min/kg,≤ 10.7 mL/min/kg,23.4 µg/mL,–,–,Cn1cc(NC(=O)c2cn(Cc3ccccc3)nn2)cn1
11.5,5.26 mL/min/kg,13.6 mL/min/kg,29.3 µg/mL,–,–,COc1ccc2nc(C)nc(N3CC(CO)C3)c2c1
0.624,55.4 mL/min/kg,1050 mL/min/kg,30.4 µg/mL,–,–,Clc1ccc(-c2ccc(CNCC3CCCO3)o2)c(Cl)c1 (stereo not given)
41.5,–,–,0.2 µg/mL,–,–,CCC(=O)Nc1cccc(C(=O)N2CCN(C)Cc3ccccc32)c1

MDR1-MDCK efflux ratio,"intrinsic clearance, human liver microsomes","intrinsic clearance, rat liver microsomes",aqueous solubility,"fraction unbound, human plasma","fraction unbound, rat plasma",Compound
1.93,380 mL/min/kg,1510 mL/min/kg,25.1 µg/mL,0.00903,0.0137,Nc1ncc(-c2cccc(C(F)(F)F)c2)c(C2CCCCN2C(=O)c2ccccc2)n1 (stereo not given)
0.698,≤ 4.74 mL/min/kg,46.5 mL/min/kg,22.7 µg/mL,–,–,COc1cccc(-c2nc(-c3cccnc3)n[nH]2)c1
–,13.7 mL/min/kg,210 mL/min/kg,–,–,–,O=C(Cn1ncc2ccccc21)Nc1ccc2c(c1)CCO2
16.2,–,–,0.2 µg/mL,–,–,Cc1ccc(-n2nc(C(C)(C)C)cc2NC(=O)NCc2cc(F)ccc2Oc2ccc3c(cnn3CCO)c2)cc1
0.782,63.9 mL/min/kg,5650 mL/min/kg,–,–,–,Cc1cc(C(=O)N(C)CCCC2CCCC2)cc(C)n1
–,–,–,21.8 µg/mL,–,–,NCCOc1cccc(C(F)(F)F)n1
1.48,202 mL/min/kg,1590 mL/min/kg,42.5 µg/mL,–,–,COc1ccc(CNc2ncc(-c3ccc4c(c3)OCO4)n2C)c(OC)c1
–,11.1 mL/min/kg,52.7 mL/min/kg,–,–,–,CC(=O)c1ccc(-c2ccc(-c3nn[nH]n3)cc2)cc1
99.5,–,–,–,–,–,COc1cc([C@H](CC(=O)O)c2ccc(C)c(CN3C[C@@H](C)Oc4ccccc4S3(=O)=O)c2)cc2nnn(C)c12
0.887,≤ 4.74 mL/min/kg,65.3 mL/min/kg,50 µg/mL,–,–,CC(C)(C)N1CCCN(C(=O)CNc2ccc(C#N)cc2)CC1
0.648,9.78 mL/min/kg,69.7 mL/min/kg,30.7 µg/mL,–,–,CN(Cc1cccnc1)Cc1ccc(C#N)o1
1.35,9.2 mL/min/kg,68.6 mL/min/kg,–,–,–,CCC(=O)Nc1ccc(F)c(NC(=O)N2CC=C(C)CC2)c1
–,129 mL/min/kg,484 mL/min/kg,10.1 µg/mL,–,–,COc1ccc2c(c1)CN(c1nc(C)cc(C)n1)CC2
–,–,–,3.73 µg/mL,–,–,Clc1ccccc1C(c1ccccc1)(c1ccccc1)n1ccnc1
–,–,–,23.1 µg/mL,–,–,CN1CC(=O)N(CCOc2ccccc2)C1=O
0.232,26 mL/min/kg,146 mL/min/kg,23 µg/mL,–,–,CCc1nc(NC(=O)c2ccccc2F)sc1C
2.47,≤ 4.74 mL/min/kg,≤ 10.7 mL/min/kg,–,–,–,O=C(NCCc1cnn[nH]1)C1Cc2ccccc2C1
0.511,45.6 mL/min/kg,459 mL/min/kg,36.6 µg/mL,–,–,CC(C)c1noc(-c2ccc(N(C)Cc3cccnc3)nc2)n1
–,9.68 mL/min/kg,527 mL/min/kg,–,–,–,Cc1nc(C2CCN(c3ccc(F)cc3C#N)CC2)no1
1.58,916 mL/min/kg,5800 mL/min/kg,61.8 µg/mL,–,–,Cc1oc(C)c(C(=O)N(C)Cc2ccccc2N2CCOCC2)c1C

Compound,MDR1-MDCK efflux ratio,"intrinsic clearance, human liver microsomes","intrinsic clearance, rat liver microsomes",aqueous solubility,"fraction unbound, human plasma","fraction unbound, rat plasma"
CCN1CCC(N(C)c2ncnc3c2cnn3C)CC1,1.01,152 mL/min/kg,37 mL/min/kg,41.2 µg/mL,–,–
NC1(c2nc(-c3ccsc3)no2)CCCCC1,–,≤ 4.74 mL/min/kg,447 mL/min/kg,–,–,–
